Test results taken from PubChem BioAssay AID248 (DTP/NCI, 2004).
Several values for one entry are separate records, joined by “and”; a condition that tells them apart may be missing. Equal entries are not always repeated. Inconclusive results and toxic doses are left out. Cut-off read from the data, not from the text of the source: active = T/C of 150% or more; inactive = T/C below 125%.

Test system: L1210 leukemia ip in BDF1 mice, survival T/C
Assay: NCI In Vivo Anticancer Drug Screen. Data for tumor model L1210 Leukemia (intraperitoneal) in B6D2F1 (BDF1) mice
Settings: endpoint: mean survival time, higher = longer survival
Summary of the method: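 Value reflects the ratio of survival in compound-treated mice to survival in vehicle-treated controls, with both groups carrying the same transplanted tumor.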

[1] = dose: 100.0 mg/kg/injection, schedule: Q01DX001 (ip), vehicle: saline
[2] = dose: 200.0 mg/kg/injection, schedule: Q01DX001 (ip), vehicle: saline
[3] = dose: 400.0 mg/kg/injection, schedule: Q01DX001 (ip), vehicle: saline
[4] = dose: 100.0 mg/kg/injection, schedule: Q01DX009 (ip), vehicle: Klucel (hydroxypropylcellulose) (HPC)
[5] = dose: 100.0 mg/kg/injection, schedule: Q04DX003 (ip), vehicle: Klucel (hydroxypropylcellulose) (HPC)
[6] = dose: 200.0 mg/kg/injection, schedule: Q01DX009 (ip), vehicle: Klucel (hydroxypropylcellulose) (HPC)
[7] = dose: 200.0 mg/kg/injection, schedule: Q04DX003 (ip), vehicle: Klucel (hydroxypropylcellulose) (HPC)
[8] = dose: 400.0 mg/kg/injection, schedule: Q01DX009 (ip), vehicle: Klucel (hydroxypropylcellulose) (HPC)
[9] = dose: 400.0 mg/kg/injection, schedule: Q04DX003 (ip), vehicle: Klucel (hydroxypropylcellulose) (HPC)
[10] = dose: 50.0 mg/kg/injection, schedule: Q01DX001 (ip), vehicle: saline
[11] = dose: 100.0 mg/kg/injection, schedule: Q01DX009 (ip), vehicle: saline with Tween-80
[12] = dose: 200.0 mg/kg/injection, schedule: Q01DX009 (ip), vehicle: saline with Tween-80
[13] = dose: 400.0 mg/kg/injection, schedule: Q01DX009 (ip), vehicle: saline with Tween-80
[14] = dose: 100.0 mg/kg/injection, schedule: Q01DX001 (ip), vehicle: carboxymethylcellulose (CMC)
[15] = dose: 200.0 mg/kg/injection, schedule: Q01DX001 (ip), vehicle: carboxymethylcellulose (CMC)
[16] = dose: 400.0 mg/kg/injection, schedule: Q01DX001 (ip), vehicle: carboxymethylcellulose (CMC)
[17] = dose: 50.0 mg/kg/injection, schedule: Q01DX009 (ip), vehicle: saline
[18] = dose: 100.0 mg/kg/injection, schedule: Q04DX003 (ip), vehicle: saline
[19] = dose: 200.0 mg/kg/injection, schedule: Q04DX003 (ip), vehicle: saline
[20] = dose: 100.0 mg/kg/injection, schedule: Q04DX003 (ip), vehicle: saline with Tween-80
[21] = dose: 100.0 mg/kg/injection, schedule: Q04DX002 (ip), vehicle: Klucel (hydroxypropylcellulose) (HPC)
[22] = dose: 200.0 mg/kg/injection, schedule: Q04DX002 (ip), vehicle: Klucel (hydroxypropylcellulose) (HPC)
[23] = dose: 400.0 mg/kg/injection, schedule: Q04DX002 (ip), vehicle: Klucel (hydroxypropylcellulose) (HPC)

Measured: T/C

COc1cc2c(c(OC)c1OC)-c1ccc(SC)c(=O)cc1C(NC1OC(CO)C(O)C(O)C1O)CC2 (stereo not given)
inactive: dose: 12.5 mg/kg/injection, schedule: Q01DX005 (ip), vehicle: saline 100 % of control | dose: 25.0 mg/kg/injection, schedule: Q01DX005 (ip), vehicle: saline 100 % of control | dose: 50.0 mg/kg/injection, schedule: Q01DX005 (ip), vehicle: saline 112 % of control and 119 % of control | dose: 100.0 mg/kg/injection, schedule: Q01DX005 (ip), vehicle: saline 116 % of control

c1ccc(C2c3cc4ccccc4cc3Oc3ccc4ccccc4c32)cc1 (stereo not given)
inactive: dose: 75.0 mg/kg/injection, schedule: Q04DX003 (ip), vehicle: other 94 % of control | dose: 300.0 mg/kg/injection, schedule: Q04DX003 (ip), vehicle: other 103 % of control

CC(C)C(C(=O)O)C(=O)O
inactive: [1] 102 % of control | [2] 104 % of control | [3] 112 % of control

COc1ccc(CCn2ccc(C(=O)O)cc2=O)cc1OC
inactive: [4] 89 % of control | [5] 91 % of control | [6] 101 % of control | [7] 94 % of control | [8] 99 % of control | [9] 105 % of control

O=C(COc1ccc(Cl)cc1C(=O)O)NCc1cccc2ccccc12
inactive: [5] 97 % of control | [7] 98 % of control | [9] 100 % of control

O=C(O)CO
inactive: [10] 94 % of control | [1] 97 % of control | [11] 107 % of control | [2] 108 % of control | [12] 100 % of control | [13] 93 % of control

O=C1ON(c2ccccc2)C(c2ccccc2)N1c1ccc([N+](=O)[O-])cc1 (stereo not given)
inactive: [10] 106 % of control | [1] 114 % of control | [2] 100 % of control | [3] 112 % of control

COc1cc(N(CCCl)CCCl)c(OC)cc1C=Nc1cccc(C(F)(F)F)c1
inactive: [14] 120 % of control | [15] 115 % of control | [16] 98 % of control

CC(OC1CCCCO1)C1CCC2C3CCC4=CC(=O)CCC4(C)C3CCC12C (stereo not given)
inactive: dose: 50.0 mg/kg/injection, schedule: Q01DX001 (sc), vehicle: steriod suspending solution 103 % of control | dose: 100.0 mg/kg/injection, schedule: Q01DX001 (sc), vehicle: steriod suspending solution 105 % of control | dose: 200.0 mg/kg/injection, schedule: Q01DX001 (sc), vehicle: steriod suspending solution 103 % of control | dose: 400.0 mg/kg/injection, schedule: Q01DX001 (sc), vehicle: steriod suspending solution 111 % of control

CC1(C)N=C(N)N=C(N)N1c1ccc(OCCCNC(=O)Nc2cccc(S(=O)(=O)F)c2)c(Cl)c1
inactive: [17] 114 % of control

CN(C)C(C)(C)CNc1ccc(C(=O)O)cc1
inactive: dose: 6.0 mg/kg/injection, schedule: Q01DX009 (ip), vehicle: saline 96 % of control | dose: 12.0 mg/kg/injection, schedule: Q01DX009 (ip), vehicle: saline 97 % of control | dose: 25.0 mg/kg/injection, schedule: Q01DX009 (ip), vehicle: saline 100 % of control and 98 % of control | [17] 109 % of control | [18] 98 % of control | [19] 101 % of control

COC1OC(COC(c2ccccc2)(c2ccccc2)c2ccccc2)C(O)C(O)C1O (stereo not given)
inactive: dose: 50.0 mg/kg/injection, schedule: Q01DX009 (ip), vehicle: Klucel (hydroxypropylcellulose) (HPC) 89 % of control | [4] 93 % of control | [6] 89 % of control

CC(C)(Br)C(=O)c1ccc([N+](=O)[O-])o1
inactive: dose: 12.5 mg/kg/injection, schedule: Q01DX009 (ip), vehicle: saline with Tween-80 97 % of control | dose: 25.0 mg/kg/injection, schedule: Q01DX009 (ip), vehicle: saline with Tween-80 104 % of control | dose: 25.0 mg/kg/injection, schedule: Q04DX003 (ip), vehicle: saline with Tween-80 104 % of control | dose: 50.0 mg/kg/injection, schedule: Q01DX009 (ip), vehicle: saline with Tween-80 95 % of control | dose: 50.0 mg/kg/injection, schedule: Q04DX003 (ip), vehicle: saline with Tween-80 96 % of control | [20] 99 % of control and 89 % of control

Cc1ccc(C)c(NC(=O)NCc2ccc(Cl)cc2)c1
inactive: [11] 87 % of control | [20] 93 % of control | [12] 89 % of control | [13] 93 % of control | dose: 400.0 mg/kg/injection, schedule: Q04DX003 (ip), vehicle: saline with Tween-80 100 % of control

C1CC2CC3OC3CC12 (stereo not given)
inactive: [21] 95 % of control | [22] 92 % of control | [23] 92 % of control

O=C(O)C(O)C(O)C(O)C(O)CO (stereo not given)
inactive: [18] 106 % of control | [19] 96 % of control | dose: 400.0 mg/kg/injection, schedule: Q04DX003 (ip), vehicle: saline 96 % of control

C1=CC2OC3CCCCC3C2c2ccccc21 (stereo not given)
inactive: [14] 95 % of control | [15] 95 % of control | [16] 98 % of control

N#CCSc1nc(N)nc2nc[nH]c12
inactive: dose: 62.5 mg/kg/injection, schedule: Q01DX Z (ip), vehicle: methylcellulose (MC) 101 % of control | dose: 125.0 mg/kg/injection, schedule: Q01DX Z (ip), vehicle: methylcellulose (MC) 105 % of control

CSc1ccc(B2Oc3cc(Cl)c(Cl)cc3O2)cc1
inactive: dose: 100.0 mg/kg/injection, schedule: Q04DX003 (ip), vehicle: alcohol 124 % of control | dose: 200.0 mg/kg/injection, schedule: Q04DX003 (ip), vehicle: alcohol 95 % of control | dose: 400.0 mg/kg/injection, schedule: Q04DX003 (ip), vehicle: alcohol 100 % of control

O=C(/C=C/c1ccccc1)NN1CCOCC1
inactive: dose: 75.0 mg/kg/injection, schedule: Q01DX009 (ip), vehicle: Klucel (hydroxypropylcellulose) (HPC) 92 % of control | dose: 150.0 mg/kg/injection, schedule: Q01DX009 (ip), vehicle: Klucel (hydroxypropylcellulose) (HPC) 108 % of control | dose: 300.0 mg/kg/injection, schedule: Q01DX009 (ip), vehicle: Klucel (hydroxypropylcellulose) (HPC) 115 % of control

Fc1c(F)c(F)c(P(c2ccccc2)c2ccccc2)c(F)c1F
inactive: [21] 95 % of control | [22] 95 % of control | [23] 111 % of control

COc1c(OC)c(C(C)C)c2c(OC(C)=O)c(C)c(-c3c(C)c(OC(C)=O)c4c(C(C)C)c(OC)c(OC)c5c4c3OC5=O)c3c2c1C(=O)O3
inactive: dose: 50.0 mg/kg/injection, schedule: Q01DX001 (ip), vehicle: Klucel (hydroxypropylcellulose) (HPC) 100 % of control | dose: 100.0 mg/kg/injection, schedule: Q01DX001 (ip), vehicle: Klucel (hydroxypropylcellulose) (HPC) 93 % of control | dose: 200.0 mg/kg/injection, schedule: Q01DX001 (ip), vehicle: Klucel (hydroxypropylcellulose) (HPC) 98 % of control

N#Cc1c(N)sc(N)c1C#N
inactive: [4] 96 % of control | [5] 100 % of control | [6] 89 % of control | [7] 98 % of control | [8] 96 % of control | [9] 98 % of control
